The values below come from ChEMBL document CHEMBL3272010, “Antimycotic imidazoles. 3. Synthesis and antimycotic properties of 1-[2-(aryloxyalkyl)-2-phenylethyl]-1H-imidazoles” (1977).

SMILES strings stand for the structures. Active and inactive are the calls of the source. No cut-off for these calls is given here.

One test relates to Trichophyton rubrum. Description: Antifungal activity against Trichophyton rubrum assessed as lowest dose required to total inhibition of fungal growth. Type of test: functional.
For test [1], the system named is Trichophyton mentagrophytes. Nature of the test: Antifungal activity against Trichophyton mentagrophytes assessed as lowest dose required to total inhibition of fungal growth. Type of test: functional.
Test [2] relates to Candida albicans. Description: Antifungal activity against Candida albicans assessed as lowest dose required to total inhibition of fungal growth. Type of test: functional.
Test [3] deals with Staphylococcus haemolyticus. Description: Antibaterial activity against Staphylococcus haemolyticus assessed as lowest dose required to total inhibition of bacterial growth. Type of test: functional.
A further test concerns Candida tropicalis. Nature of the test: Antifungal activity against Candida tropicalis assessed as lowest dose required to total inhibition of fungal growth. Type of test: functional.
For another test, the system named is Phialophora verrucosa. Nature of the test: Antifungal activity against Phialophora verrucosa assessed as lowest dose required to total inhibition of fungal growth. Type of test: functional.
In the next test the test system is Streptococcus pyogenes. Nature of the test: Antibaterial activity against Streptococcus pyogenes assessed as lowest dose required to total inhibition of bacterial growth. Type of test: functional.
The next test has as its system Saprolegnia. Nature of the test: Antifungal activity against Saprolegnia species assessed as lowest dose required to total inhibition of fungal growth. Type of test: functional.
Test [4] has as its system Candida albicans. Nature of the test: Antifungal activity against Candida albicans infected in guinea pig at 10 mg/kg, po qd. Type of test: functional, organism-based. Set-up: dose 10 mg/kg.
The next test relates to Cryptococcus neoformans. Description: Antifungal activity against Cryptococcus neoformans assessed as lowest dose required to total inhibition of fungal growth. Type of test: functional.
Another test relates to Aspergillus fumigatus. Nature of the test: Antifungal activity against Aspergillus fumigatus assessed as lowest dose required to total inhibition of fungal growth. Type of test: functional.
Test [5] relates to Erysipelothrix rhusiopathiae. Nature of the test: Antibaterial activity against Erysipelothrix insidiosa assessed as lowest dose required to total inhibition of bacterial growth. Type of test: functional.
Another test has as its system Mucor. Nature of the test: Antifungal activity against Mucor species assessed as lowest dose required to total inhibition of fungal growth. Type of test: functional.
For the next test, the system named is Microsporum canis. Nature of the test: Antifungal activity against Microsporum canis assessed as lowest dose required to total inhibition of fungal growth. Type of test: functional.
The subject of the next test is Sporothrix schenckii. Description: Antifungal activity against Sporothrix schenckii assessed as lowest dose required to total inhibition of fungal growth. Type of test: functional.

Take `Clc1ccc(OCCC(Cn2ccnc2)c2ccc(Cl)cc2Cl)c(Cl)c1.O=C(O)C(=O)O` (stereo not given): the GI in the test on Trichophyton rubrum was less than 1 µg/mL; in test [1], less than 1 µg/mL; in the test on Candida albicans [2], 100 µg/mL; in test [3] it was 1 µg/mL; with Candida tropicalis, greater than 100 µg/mL; with Phialophora verrucosa, 100 µg/mL. Besides, the GI was less than 1 µg/mL in the test with Streptococcus pyogenes; 100 µg/mL with Saprolegnia; less than 1 µg/mL with Cryptococcus neoformans; 100 µg/mL in the test with Aspergillus fumigatus; less than 1 µg/mL in test [5]; 100 µg/mL with Mucor. Besides, the results for the GI in the test with Microsporum canis and with Sporothrix schenckii were 10 µg/mL and 100 µg/mL, respectively. Also, the outcome in the test on Candida albicans [4] was Active.
